The structures appear in SMILES notation.

One test deals with hKv1.3 (Homo sapiens, UniProt P22001). Nature of the test: cell-based. The format is cell-based. To be noted: Kv1.3 (IWQ) IC50 (nM, Avg).
Sequence of hKv1.3 (P22001 whole entry): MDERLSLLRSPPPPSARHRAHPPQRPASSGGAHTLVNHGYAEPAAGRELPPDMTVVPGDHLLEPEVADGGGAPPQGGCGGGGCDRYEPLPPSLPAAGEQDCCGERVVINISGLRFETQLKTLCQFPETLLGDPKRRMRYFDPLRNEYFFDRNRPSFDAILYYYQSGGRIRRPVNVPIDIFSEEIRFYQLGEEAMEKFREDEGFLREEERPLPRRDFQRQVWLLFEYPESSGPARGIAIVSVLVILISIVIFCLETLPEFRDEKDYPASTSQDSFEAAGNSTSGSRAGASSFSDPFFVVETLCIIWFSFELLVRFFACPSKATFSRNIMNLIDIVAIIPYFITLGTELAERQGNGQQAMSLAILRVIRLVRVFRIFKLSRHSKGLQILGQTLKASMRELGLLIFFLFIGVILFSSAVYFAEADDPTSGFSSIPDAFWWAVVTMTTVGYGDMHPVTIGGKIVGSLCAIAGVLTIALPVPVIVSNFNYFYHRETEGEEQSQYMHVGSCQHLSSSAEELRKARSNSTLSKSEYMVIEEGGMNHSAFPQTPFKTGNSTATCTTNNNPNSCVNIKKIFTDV
In the case of `CC[C@H](C)[C@@H]1NC(=O)[C@@H](NC(=O)[C@H](CO)NC(=O)[C@@H](N)CCCNC(=N)N)CSSC[C@@H](C(=O)O)NC(=O)[C@H]([C@@H](C)O)NC(=O)CNC(=O)[C@@H]2CSSC[C@@H]3NC(=O)[C@H](CCC(N)=O)NC(=O)[C@H](Cc4ccccc4)NC(=O)[C@H](C)NC(=O)[C@H]([C@@H](C)O)NC(=O)[C@H](CSSC[C@H](NC(=O)[C@H](Cc4ccccc4)NC(=O)[C@H](CO)NC(=O)[C@H](CC(C)C)NC(=O)[C@H](CCCNC(=N)N)NC(=O)[C@H](Cc4ccc(O)cc4)NC(=O)[C@H](CCCCN)NC(=O)[C@H](CCSC)NC(=O)[C@H](Cc4cccc5ccccc45)NC(=O)[C@H](Cc4cnc[nH]4)NC(=O)[C@H](CCCCN)NC3=O)C(=O)N[C@@H](CCCNC(=N)N)C(=O)N[C@@H](CCCCN)C(=O)N[C@@H]([C@@H](C)O)C(=O)N2)NC(=O)[C@H](CCCNC(=N)N)NC(=O)[C@H](CO)NC(=O)[C@H](CCCCN)NC(=O)[C@@H]2CCCN2C(=O)[C@H]([C@@H](C)CC)NC(=O)[C@H]([C@@H](C)O)NC(=O)[C@H](CC(=O)O)NC1=O` [[1-Nal20]ShK], the IC50 amounted to 2.11 nM.
In turn, `CC[C@H](C)[C@@H]1NC(=O)[C@@H](NC(=O)[C@H](CO)NC(=O)[C@@H](N)CCCNC(=N)N)CSSC[C@@H](C(=O)O)NC(=O)[C@H](Cc2cccc3ccccc23)NC(=O)CNC(=O)[C@@H]2CSSC[C@@H]3NC(=O)[C@H](CCC(N)=O)NC(=O)[C@H](Cc4ccccc4)NC(=O)[C@H](C)NC(=O)[C@H]([C@@H](C)O)NC(=O)[C@H](CSSC[C@H](NC(=O)[C@H](Cc4ccccc4)NC(=O)[C@H](CO)NC(=O)[C@H](CC(C)C)NC(=O)[C@H](CCCNC(=N)N)NC(=O)[C@H](Cc4ccc(O)cc4)NC(=O)[C@H](CCCCN)NC(=O)[C@H](CCSC)NC(=O)[C@H](CO)NC(=O)[C@H](Cc4cnc[nH]4)NC(=O)[C@H](CCCCN)NC3=O)C(=O)N[C@@H](CCCNC(=N)N)C(=O)N[C@@H](CCCCN)C(=O)N[C@@H]([C@@H](C)O)C(=O)N2)NC(=O)[C@H](CCCNC(=N)N)NC(=O)[C@H](CO)NC(=O)[C@H](CCCCN)NC(=O)[C@@H]2CCCN2C(=O)[C@H]([C@@H](C)CC)NC(=O)[C@H]([C@@H](C)O)NC(=O)[C@H](CC(=O)O)NC1=O` [[1-Nal34]ShK] came in with an IC50 of 0.077 nM.
The same measure, in the same setting: then `CC[C@H](C)[C@@H]1NC(=O)[C@@H](NC(=O)[C@H](CO)NC(=O)[C@@H](N)CCCNC(=N)N)CSSC[C@@H](C(=O)O)NC(=O)[C@H]([C@@H](C)O)NC(=O)CNC(=O)[C@@H]2CSSC[C@@H]3NC(=O)[C@H](CCC(N)=O)NC(=O)[C@H](Cc4ccccc4)NC(=O)[C@H](C)NC(=O)[C@H]([C@@H](C)O)NC(=O)[C@H](CSSC[C@H](NC(=O)[C@H](Cc4ccccc4)NC(=O)[C@H](CO)NC(=O)[C@H](CC(C)C)NC(=O)[C@H](CCCNC(=N)N)NC(=O)[C@H](Cc4ccc(O)cc4)NC(=O)[C@H](CCCNC(=N)N)NC(=O)[C@H](CCSC)NC(=O)[C@H](CO)NC(=O)[C@H](Cc4cnc[nH]4)NC(=O)[C@H](CCCCN)NC3=O)C(=O)N[C@@H](CCCNC(=N)N)C(=O)N[C@@H](CCCCN)C(=O)N[C@@H]([C@@H](C)O)C(=O)N2)NC(=O)[C@H](CCCNC(=N)N)NC(=O)[C@H](CO)NC(=O)[C@H](CCCCN)NC(=O)[C@@H]2CCCN2C(=O)[C@H]([C@@H](C)CC)NC(=O)[C@H]([C@@H](C)O)NC(=O)[C@H](CC(=O)O)NC1=O` [[Arg22]ShK], with 18.7 nM; and `CC[C@H](C)[C@@H]1NC(=O)[C@@H](NC(=O)[C@H](CO)NC(=O)[C@@H](N)CCCNC(=N)N)CSSC[C@@H](C(=O)O)NC(=O)[C@H]([C@@H](C)O)NC(=O)CNC(=O)[C@@H]2CSSC[C@@H]3NC(=O)[C@H](CCC(N)=O)NC(=O)[C@H](Cc4ccccc4)NC(=O)[C@H](C)NC(=O)[C@H]([C@@H](C)O)NC(=O)[C@H](CSSC[C@H](NC(=O)[C@H](Cc4ccccc4)NC(=O)[C@H](CO)NC(=O)[C@H](CC(C)C)NC(=O)[C@H](CCCNC(=N)N)NC(=O)[C@H](CCCNC(=N)N)NC(=O)[C@H](CCCCN)NC(=O)[C@H](CCSC)NC(=O)[C@H](CO)NC(=O)[C@H](Cc4cnc[nH]4)NC(=O)[C@H](CCCCN)NC3=O)C(=O)N[C@@H](CCCNC(=N)N)C(=O)N[C@@H](CCCCN)C(=O)N[C@@H]([C@@H](C)O)C(=O)N2)NC(=O)[C@H](CCCNC(=N)N)NC(=O)[C@H](CO)NC(=O)[C@H](CCCCN)NC(=O)[C@@H]2CCCN2C(=O)[C@H]([C@@H](C)CC)NC(=O)[C@H]([C@@H](C)O)NC(=O)[C@H](CC(=O)O)NC1=O` [[Arg23]ShK], with 0.154 nM.
With `CC[C@H](C)[C@@H]1NC(=O)[C@@H](NC(=O)[C@H](CO)NC(=O)[C@@H](N)CCCNC(=N)N)CSSC[C@@H](C(=O)O)NC(=O)[C@H]([C@@H](C)O)NC(=O)CNC(=O)[C@@H]2CSSC[C@@H]3NC(=O)[C@H](CCC(N)=O)NC(=O)[C@H](Cc4ccccc4)NC(=O)[C@H](C)NC(=O)[C@H]([C@@H](C)O)NC(=O)[C@H](CSSC[C@H](NC(=O)[C@H](Cc4ccccc4)NC(=O)[C@H](CO)NC(=O)[C@H](CC(C)C)NC(=O)[C@H](CCCNC(=N)N)NC(=O)[C@H](Cc4ccc(O)cc4)NC(=O)[C@H](CCCCN)NC(=O)[C@H](CCSC)NC(=O)[C@H](CO)NC(=O)[C@H](Cc4c[nH]cn4)NC(=O)[C@H](CCCCN)NC3=O)C(=O)N[C@@H](CCCNC(=N)N)C(=O)N[C@@H](CCCCN)C(=O)N[C@@H]([C@@H](C)O)C(=O)N2)NC(=O)[C@H](CCCNC(=N)N)NC(=O)[C@H](CO)NC(=O)[C@H](CCCCN)NC(=O)[C@H](CCC(=O)O)NC(=O)[C@H]([C@@H](C)CC)NC(=O)[C@H]([C@@H](C)O)NC(=O)[C@H](CC(=O)O)NC1=O` [[Glu8]ShK], the IC50 turned out to be 0.097 nM.
Same read-out and setting: the figure for `CC[C@H](C)[C@@H]1NC(=O)[C@@H](NC(=O)[C@H](CO)NC(=O)[C@@H](N)CCCNC(=N)N)CSSC[C@@H](C(=O)O)NC(=O)[C@H]([C@@H](C)O)NC(=O)CNC(=O)[C@@H]2CSSC[C@@H]3NC(=O)[C@H](CCC(N)=O)NC(=O)[C@H](Cc4ccccc4)NC(=O)[C@H](C)NC(=O)[C@H]([C@@H](C)O)NC(=O)[C@H](CSSC[C@H](NC(=O)[C@H](Cc4ccccc4)NC(=O)[C@H](CO)NC(=O)[C@H](CC(C)C)NC(=O)[C@H](CCCNC(=N)N)NC(=O)[C@H](Cc4ccc(O)cc4)NC(=O)[C@H](CCCCN)NC(=O)[C@H](CCSC)NC(=O)[C@H](CO)NC(=O)[C@H](Cc4cnc[nH]4)NC(=O)[C@H](CCCCN)NC3=O)C(=O)N[C@@H](CCCNC(=N)N)C(=O)N[C@@H](CCCCN)C(=O)N[C@@H]([C@@H](C)O)C(=O)N2)NC(=O)[C@H](CCCNC(=N)N)NC(=O)[C@H](CO)NC(=O)[C@H](CCCCN)NC(=O)[C@@H]2CCCN2C(=O)[C@H]([C@@H](C)CC)NC(=O)[C@H]([C@@H](C)O)NC(=O)[C@H](CCCCN)NC1=O` [[Lys5]ShK] is 3.3 nM.

In another test the test system is IFN-g secretion from T cells in human whole blood.
Test: not given
The format is cell-based. To be noted: read-out: WB (IFNg) IC5- (nM, Avg).
In the case of `CC[C@H](C)[C@@H]1NC(=O)[C@@H](NC(=O)[C@H](CO)NC(=O)[C@@H](N)CCCNC(=N)N)CSSC[C@@H](C(=O)O)NC(=O)[C@H]([C@@H](C)O)NC(=O)CNC(=O)[C@@H]2CSSC[C@@H]3NC(=O)[C@H](CCC(N)=O)NC(=O)[C@H](Cc4ccccc4)NC(=O)[C@H](C)NC(=O)[C@H]([C@@H](C)O)NC(=O)[C@H](CSSC[C@H](NC(=O)[C@H](Cc4ccccc4)NC(=O)[C@H](CO)NC(=O)[C@H](CC(C)C)NC(=O)[C@H](CCCNC(=N)N)NC(=O)[C@H](Cc4ccc(O)cc4)NC(=O)[C@H](CCCCN)NC(=O)[C@H](CCSC)NC(=O)[C@H](CO)NC(=O)[C@H](Cc4c[nH]cn4)NC(=O)[C@H](CCCCN)NC3=O)C(=O)N[C@@H](CCCNC(=N)N)C(=O)N[C@@H](CCCCN)C(=O)N[C@@H]([C@@H](C)O)C(=O)N2)NC(=O)[C@H](CCCNC(=N)N)NC(=O)[C@H](CO)NC(=O)[C@H](CCCCN)NC(=O)[C@H](CCC(=O)O)NC(=O)[C@H]([C@@H](C)CC)NC(=O)[C@H]([C@@H](C)O)NC(=O)[C@H](CC(=O)O)NC1=O` [[Glu8]ShK], the IC50 was 0.238 nM.

Values taken from patent US20120121591A1 (priority 2009, published 2012).
